Source: patent US11634466B2, “Musclin peptides and methods of use thereof” (UNIVERSITY OF IOWA RESEARCH FOUNDATION, priority 2016, dated 2023)

How the values were obtained:
Type in all cases: cell-based
[1] = tested on: cGMP production in murine primary myoblasts; experiment: cGMP production in skeletal myoblast culture exposed to ANP and musclin; details: n=3
Method: Cyclic GMP levels were measured using cyclicGMP EIA kit (Cayman Chemical Company, Ann Arbor, Mich.). Mice were exercised for 5 days, 12 m/min, 45 min before tissue collection. At the day of the experiment mice were exercised 12 m/min, 20 min, sedated with isoflurane and gastrocnemius muscle tissue was collected. Cyclic nucleotides were extracted using 5% trichloracetic acid. Samples were acetylated and used for cGMP level measurements according to the manufacturer's protocol.
(§1) Mouse primary myoblasts were isolated from gastrocnemius muscle of 4-6 weeks old mice. Fresh muscle tissue was digested with 2 mg/ml collagenase II in DMEM-F12 for 1.5 h at 37° C.; then 30 min at 37° C. with 1 mg/ml collagenase II and 0.5 mg/ml dispase in DMEM-F12. Tissue was ground and passed through a 100 μm then 70 μm cell strainer and spun at 1000 rpm for 10 min. Myoblasts were resuspended in DMEM-F12 supplemented with 20% FBS, 40 ng/ml bFGF, non-essential amino acids, 1 mM β-mercaptoethanol. Cells were plated on matrigel coated dishes. Cells were maintained in DMEM-F12 supplemented with 20% FBS, 10 ng/ml bFGF, non-essential amino acids, 1 mM β-mercaptoethanol until 80% confluent. Then they were differentiated in DMEM-F12 supplemented with 2% FBS and insulin-transferrin-selenium for 10 days. Human skeletal myoblast primary culture (lot #SLSK002, Zenbio, Research Triangle Park, NC) was maintained according to the supplier's manual.

[2] = tested on: OPA1 mRNA; experiment: OPA1 mRNA normalized to HPRT by PCR in myotube culture; details: n=3
Method: RNA isolation and quantitative reverse transcriptase polymerase chain reaction (qRT-PCR): Total RNA from mouse tissues and primary myocytes was isolated using RNeasy RNA Isolation Kit (Qiagen). A 1 μg primary myocyte or tissue RNA sample was used to synthesize cDNA in 50 μl reactions using Oligo(dT) as primer and SuperScript III Reverse Transcriptase (Invitrogen). Quantitative real-time PCR was performed on Mastercycler epgradient S (Eppendorf) using SYBR green based PCR reactions. For quantitative RT-PCR, 1 μl of reverse transcription reaction was mixed with 10 pmoles each specific primer and 12.5 μl SYBR PCR Master Mix (BioRad). The reaction was incubated for 40 cycles consisting of denaturation at 95° C. for 10 s and annealing/extension at 59.9° C.—for musclin, HPRT, Nrf2, 56° C.—for PGC1α, Tfam, Nrf1, for 1 min. The quality of the PCR product was routinely checked by a thermal denaturation curve following the qPCR reactions. The threshold cycle (CT) was determined by Realplex2 software (Eppendorf), and quantification of relative mRNA levels was performed by relative mRNA levels was performed by ΔΔCT method. […]

[3] = tested on: Akt and FOXO1 phosphorylation in cultured murine primary myoblasts; experiment: Akt and FOXO1 phosphorylation by western blot in primary myoblasts with Ca2+ ionophore; details: 1 μM ionophore, 1 mM Ca2+, n=4
Method: Western blotting: Whole cell protein extracts were prepared by homogenizing skeletal muscle tissue in NaCl 150 mM, Tris-HCl 50 mM (pH 7.8), supplemented with 1.5% Triton X-100, protease and phosphatase inhibitors (Roche). Nuclear extracts were obtained using the Subcellular Protein Fractionation Kit for Tissues (Thermo Scientific).
Electrophoresis was performed on 3-8% gradient Nu-Page Tris-Acetate or 10% Nu-Page Bis-Tris gels and transferred to 0.2 μm Sequi-Blot PVDF membranes (Bio-Rad). The membranes were blotted with total AKT1 and phospho-AKT1([…], T308, Cell Signaling), FOXO1 (Cell Signaling), total OXPHOS (rodent, Abcam), musclin (custom rabbit IgG produced against partial mouse musclin sequence NH2-sfsgfgspldrlsagsvehrgkqrkavdhskkr-COOH (SEQ ID NO: 4), corresponding to amino acids 80-112, Gen Bank ID: AAS87598.1, Anaspec, Fremont, Calif.), and GAPDH (Santa Cruz Biotechnologies) antibodies. Densitometric analysis of western blots was performed using Adobe Photoshop (Adobe Systems, San Jose, Calif.).
as §1

[4] = tested on: musclin mRNA in murine cultured primary myoblasts; experiment: Musclin mRNA normalized to HPRT in murine cultured primary myoblasts
Method: (§2) RNA isolation and quantitative reverse transcriptase polymerase chain reaction (qRT-PCR): Total RNA from mouse tissues and primary myocytes was isolated using RNeasy RNA Isolation Kit (Qiagen). A 1 μg primary myocyte or tissue RNA sample was used to synthesize cDNA in 50 μl reactions using Oligo(dT) as primer and SuperScript III Reverse Transcriptase (Invitrogen). Quantitative real-time PCR was performed on Mastercycler epgradient S (Eppendorf) using SYBR green based PCR reactions. For quantitative RT-PCR, 1 μl of reverse transcription reaction was mixed with 10 pmoles each specific primer and 12.5 μl SYBR PCR Master Mix (BioRad). The reaction was incubated for 40 cycles consisting of denaturation at 95° C. for 10 s and annealing/extension at 59.9° C.—for musclin, HPRT, Nrf2, 56° C.—for PGC1α, Tfam, Nrf1, for 1 min. The quality of the PCR product was routinely checked by a thermal denaturation curve following the qPCR reactions. The threshold cycle (CT) was determined by Realplex2 software (Eppendorf), and quantification of relative mRNA levels was performed by ΔΔCT method. The primers used in this study are HPRT: HPRTF—GGACCTCTCGAAGTGTTGGATAC (SEQ ID NO: 16), HPRTR—GCTCATCTTAGGCTTTGTATTTGGCT (SEQ ID NO: 17); musclin: MuscF-TGTGGACTTAGCATCACAGG (SEQ ID NO: 18), MuscR-AGC TGA GAG TCT GTC AAG G (SEQ ID NO: 19); PGC1α: PGC1aF-TGATGTGAATGACTTGGATACAGACA (SEQ ID NO: 20), PGC1αR-GCTCATTGTTGTACTGGTTGGATATG (SEQ ID NO: 21); TfamF—GGAATGTGGAGCGTGCTAAAA (SEQ ID NO: 22), TfamR—TGCTGGAAAAACACTTCGGAATA (SEQ ID NO: 23); Nrf1F—CGC AGC ACC TTT GGA GAA (SEQ ID NO: 24, Nrf1R—CCCGACCTGTGGAATACTTG (SEQ ID NO: 25); Nrf2F—CAG CTC AAG GGC ACA GTG C (SEQ ID NO: 26), Nrf2R—GTG GCC CAA GTC TTG CTC C (SEQ ID NO: 27).
as §1

[5] = tested on: musclin mRNA in human cultured primary myoblasts; experiment: Musclin mRNA normalized to HPRT in human cultured primary myoblasts
Method: as §2, §1

[6] = 0.5 μM ionophore, 1.0 mM Ca2+, n=3
[7] = 1 μM ionophore, 1.0 mM Ca2+, n=3

CC[C@H](C)[C@@H]1NC(=O)[C@H](CCCNC(=N)N)NC(=O)[C@H](CC(=O)O)NC(=O)[C@H](CCSC)NC(=O)[C@H](CCCNC(=N)N)NC(=O)CNC(=O)CNC(=O)[C@H](Cc2ccccc2)NC(=O)[C@@H](NC(=O)[C@H](CO)NC(=O)[C@H](CO)NC(=O)[C@H](CCCNC(=N)N)NC(=O)[C@H](CCCNC(=N)N)NC(=O)[C@H](CC(C)C)NC(=O)[C@@H](N)CO)CSSC[C@@H](C(=O)N[C@@H](CC(N)=O)C(=O)N[C@@H](CO)C(=O)N[C@@H](Cc2ccccc2)C(=O)N[C@@H](CCCNC(=N)N)C(=O)N[C@@H](Cc2ccc(O)cc2)C(=O)O)NC(=O)CNC(=O)[C@H](CC(C)C)NC(=O)CNC(=O)[C@H](CO)NC(=O)[C@H](CCC(N)=O)NC(=O)[C@H](C)NC(=O)CNC1=O [ANP, atrial natriuretic peptide, reference compound]
cGMP production ([1]; 1 μM ANP): 3.491±0.057 fmol/μg protein | cGMP production ([1]; 5 μM ANP): 6.046±0.074 fmol/μg protein | OPA1 mRNA normalized to HPRT ([2]; ANP 5 μM): 4.21±0.24

Nc1nc2c(nc(Br)n2[C@@H]2O[C@@H]3COP(=O)(O)O[C@H]3[C@H]2O)c(=O)[nH]1 [8-Br-cGMP]
OPA1 mRNA normalized to HPRT ([2]; 8-Br-cGMP): 5.61±0.36

CNc1ccc2oc(C[C@H]3O[C@@]4(CC[C@H]3C)O[C@H]([C@H](C)C(=O)c3ccc[nH]3)[C@H](C)C[C@H]4C)nc2c1C(=O)O [A23187]
p-Akt/GAPDH [3]: 0.91±0.05 | pAkt/total Akt [3]: 0.66±0.03 | pFOXO1/GAPDH [3]: 0.39±0.04 | pFOXO1/total FOXO1 [3]: 0.27±0.03 | musclin mRNA [4, 6]: 2.20±0.06 AU | musclin mRNA [4, 7]: 3.60±0.81 AU | musclin mRNA ([4]; ionophore with removal of extracellular Ca2+ from the medium, n=3, p=NS vs. control): 0.96±0.012 AU | musclin mRNA [5, 6]: 3.02±0.23 AU | musclin mRNA ([5]; 0.5 μM ionophore, Ca2+-free buffer, n=3, p=NS): 0.74±0.18 AU | musclin mRNA [5, 7]: 3.95±0.83 AU | musclin mRNA ([5]; 1 μM ionophore, Ca2+-free buffer, n=3, p=NS): 0.79±0.18 AU

O=c1[nH]c2ccccc2n1C1CCN(Cc2ccc(-c3nc4cc5[nH]cnc5cc4nc3-c3ccccc3)cc2)CC1 [Akt inhibitor-viii]
musclin mRNA ([4]; myoblasts pre-treated with Akt inhibitor-viii before Ca2+ ionophore, n=3, p=NS vs. control): 1.09±0.03 AU
